We go through 2 compounds from US4900673A, “Mutant human angiogenin (angiogenesis factor with superior angiogenin activity) genes therefor and methods of expression” (President and Fellows of Harvard College, priority 1988, dated 1990).

The target in one test is T1, bovine RNase A (Bos taurus, UniProt P61823).
T1 sequence (P61823 27-150): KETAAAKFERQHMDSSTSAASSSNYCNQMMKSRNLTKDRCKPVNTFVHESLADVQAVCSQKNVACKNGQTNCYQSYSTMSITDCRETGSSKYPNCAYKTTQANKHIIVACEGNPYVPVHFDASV
The settings on record: measured under conditions employed here (Harper et al., Biochemistry 27: 219-226); cited from earlier work.

The target in test [1] is T2, human angiogenin variant D116N-angiogenin (Asn-116) (Homo sapiens, UniProt P03950, D140N).
T2 construct: made in house; host or cells: E. coli W3110
T2 sequence (P03950 25-147 D140N): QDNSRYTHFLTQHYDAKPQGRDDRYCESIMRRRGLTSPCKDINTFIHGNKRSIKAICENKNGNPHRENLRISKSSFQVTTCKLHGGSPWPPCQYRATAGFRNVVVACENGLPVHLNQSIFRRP
Briefly: Cleavage of dinucleoside phosphates (HPLC method). Format: biochemical. The settings on record: 30 mM Mes, pH 6.0, 30 mM NaCl, 0.1 mM dinucleoside phosphate, 37° C. Here is the method:
Activity toward the RNase substrates cytidyl (3'→5') adenosine (CpA) and uridyl (3'→5') adenosine (UpA) was determined using a sensitive HPLC method described previously (Shapiro et al., Biochemistry 25: 3527-3532 and 7255-7264 1986). Reaction mixture containing 30 mM 2-(N-morpholino) ethane sulfonic acid (Mes), pH 6.0, 30 mM NaCl and 0.1 mM dinucleoside phosphate were incubated with angiogenin (0.7-3.0 μM) at 37° C. Aliquots (15-20 μl) were removed at various times and injected onto an HPLC column (radial Pak C18; Waters Associates) equilibrated with 10 mM potassium phosphate, pH 7.0. Elution of reactants and products was accomplished using a linear gradient of methanol in 100 mM potassium phosphate pH 7.0 at a flow rate of 0.8 ml/minutes. Elution was monitored at 254 nm and the integrated areas of reactants and products used to calculate kcat /Km using the expression kcat /Km =1n {[S] o /[S]t }/[E]t.

With `Nc1ccn([C@@H]2O[C@H](CO)[C@@H](OP(=O)(O)OC[C@H]3O[C@@H](n4cnc5c(N)ncnc54)[C@H](O)[C@@H]3O)[C@H]2O)c(=O)n1` [CpA, cytidyl (3'→5') adenosine], the “kcat /Km” value on bovine RNase A is 6e+06 M⁻¹ s⁻¹. In the case of `Nc1ncnc2c1ncn2[C@@H]1O[C@H](COP(=O)(O)O[C@H]2[C@@H](O)[C@H](n3ccc(=O)[nH]c3=O)O[C@@H]2CO)[C@@H](O)[C@H]1O` [UpA, uridyl (3'→5') adenosine], the “kcat /Km” value in test [1] is 0.5 M^-1 s^-l; on bovine RNase A, 4e+06 M⁻¹ s⁻¹.
